{
  "source": "patent US12109266B2",
  "about": "“Modulating gabarap to modulate immunogenic cell death” (Dana-Farber Cancer Institute, Inc., priority 2020, dated 2024)",
  "key": {"[1]": {"system": "patient-derived MM cells (pdMM)", "test": "Phagocytosis assay of patient-derived MM cells by DCs", "format": "cell-based, human", "conditions": "BTZ 5 and 10 nM; 4 h co-culture", "text": "Multiple myeloma patients BM aspirates and normal donor peripheral blood mononuclear cells (PBMCs) were obtained after written informed consent, in accordance with the declaration of Helsinki and under the approval by the Institutional Review Board of the Dana-Farber Cancer Institute. BMMCs and PBMCs were separated by Ficoll-Paque PLUS (GE Healthcare). Multiple myeloma cells from BMMCs were enriched by CD138-positive selection using magnetic microbeads (Miltenyi Biotec).\nMo-DCs were generated from CD14+ peripheral blood monocytes from healthy donors, positively selected using magnetic beads (Miltenyi Biotec), cultured for 6 days in mo-DC differentiation medium containing GM-CSF and IL-4 (130-094-812; Miltenyi Biotec). AMO1 and NCI-H929 cells lines, as well as patient MM cells, were stained with CellTrace™ Far Red (ThermoFisher Scientific), cultured with or without BTZ for 16 h, and then incubated in 48-well plates for 4 h at 1:1 ratio with CellTrace™ CFSE stained Mo-DCs. Cells were then collected, and phagocytosis analysis was performed by flow cytometry and confocal microscopy. Analagous phagocytosis experiments were performed using 5TGM1 murine multiple myeloma and JAWSII cell line that was used as source of immature murine DCs.\nFlow cytometry-based assay: Collected cells were analyzed using the BD LRSFortessa X-20 flow cytometer. […]"}, "[2]": {"system": "AMO1 and NCI-H929 MM cells", "test": "Micronuclei assay (flow cytometry)", "format": "cell-based, human", "conditions": "AMO1 (0-7.5 nM) and NCI-H929 (0-5 nM), 16 h", "protocol": "Cells were analyzed for micronuclei formation using a flow cytometry-based Micronucleus Assay (MicroFlow kit), according to manufacturer's protocol. Briefly, nonviable cells were removed by Ficoll gradient centrifugation. Viable cells were then stained with photoactivated Nucleic Acid Dye A (ethidium monoazide) that crosses the compromised outer membrane of apoptotic and necrotic cells and stains them red. Cells were then washed twice and lysed with a detergent containing buffer to break open cytoplasmic membranes and release nuclei and micronuclei. Nucleic Acid Dye B (SYTOX green) is then added to label DNA from both nuclei and micronuclei. Flow cytometry analysis was used to distinguish DNA from dead (dual stained with Dye A and B) and live (single stained with Dye B) cells."}, "[3]": {"system": "AMO1 and NCI-H929 multiple myeloma cell lines", "test": "Apoptosis assay (Annexin-V/7-AAD flow cytometry)", "format": "cell-based, human", "conditions": "BTZ 1-10 nM, 16 h", "protocol": "Apoptosis was evaluated by Annexin-V/7-Aminoactinomycin D (7-AAD) staining and flow cytometric analysis using the PE Annexin V Apoptosis Detection Kit I (BD Biosciences), following the manufacturer's instructions.\nApoptosis was evaluated by Annexin-V/7-Aminoactinomycin D (7-AAD) staining and flow cytometric analysis using the PE Annexin V Apoptosis Detection Kit I (BD Biosciences)."}, "[4]": {"system": "UPR transducer PERK pathway", "test": "Western blot of UPR/PERK pathway", "format": "cell-based", "conditions": "AMO1 and 5TGM1 cells", "protocol": "Cell lysis was performed in RIPA buffer (Boston Bio Products) supplemented with Halt™ protease and phosphatase inhibitor cocktail (Thermo Fisher Scientific). Immunoblot analysis was performed to evaluate expression levels of total protein and phospho-specific isoforms. SDS-PAGE was performed on NuPage™ Bis-Tris gels (ThermoFisher Scientific) using MOPS or MES running buffer. Gels were dry transferred onto 0.45 μm nitrocellulose membranes using the iBlot® Dry Blotting System (ThermoFisher Scientific). The following antibodies (Abs) were used and purchased from Cell Signaling Technology: CRT (Cat. #12238) and GABARAP (Cat. #13733). GAPDH (Cat. #2118) was used as loading controls.\nCell lysis was performed in RIPA buffer (Boston Bio Products) supplemented with Halt protease and phosphatase inhibitor cocktail (ThermoFisher Scientific). SDS-PAGE was performed on NuPage Bis-Tris gels (ThermoFisher Scientific) using MOPS or MES running buffer. Gels were dry transferred onto 0.45 μm nitrocellulose membranes using the iBlot® Dry Blotting System (ThermoFisher Scientific). The following Abs were purchased from Cell Signaling Technology: EIF2A (#5324), p-EIF2A (#3398), ATF4 (#11815), CHOP (2895), CALR (#12238), cGAS (#15102), TBK1 (#3504), pTBK1 (#5483), pIRF3 (#29047), STING (#13647). GAPDH (#2118) and B-ACTIN (#4970) were used as loading controls."}, "5TGM1 tumors": {"system": "5TGM1 tumors", "test": "RNA-seq analysis from mouse tumors", "format": "in vivo", "conditions": "immunocompetent mice", "protocol": "Tumors growing from both 5TGM1 WT or calrKO cells in C57BL/KaLwRijHsd mice treated with either PBS or BTZ (3/group) were harvested and used to extract RNA using the RNeasy® kit (Qiagen). After passing quality control, RNAseq was performed using Illumina NextSeq 500 Single-End 75 bp (SE75) and analyzed following the VIPER NGS analysis pipeline (Cornwell et al. (2018) BMC Bioinform. 19:135) comparing BTZ-treated mice vs PBS in each experimental setting. Listing of differentially expressed genes (DEGs) were applied to gene set enrichment analysis (GSEA) and Cytoscape (Bindea et al. (2009) Bioinform. 25:1091-1093; Bindea et al. (2013) Bioinform. 29:661-663) software to reveal biological pathways modulated by BTZ.\nTumors growing from both 5TGM1 WT or Calr^KO cells in C57BL/KaLwRijHsd mice treated with either PBS or BTZ (3/group) were harvested and used to extract RNA using the RNeasy kit (Qiagen). After passing quality control, RNAseq was performed using Illumina NextSeq 500 Single-End 75 bp (SE75) and analyzed following the VIPER NGS analysis pipeline (Cornwell et al. (2018) BMC Bioinformatics; 19(1):135), comparing BTZ-treated mice vs PBS in each experimental setting. […] Analysis of expression of human orthologs of these 90 genes in MM patients and correlation with patient clinical outcome was then analyzed as detailed below. […]"}},
  "note": "“Also recorded” adds a separate entry of the source.",
  "data": [
    {"smiles": "CC(C)C[C@H](NC(=O)[C@H](Cc1ccccc1)NC(=O)c1cnccn1)B(O)O", "note": "[BTZ, bortezomib]", "values": [
      {"measurement": "phagocytosis of BTZ-treated pdMM cells by DCs", "setting": "[1]", "result": "dose-dependent increase in phagocytosis of BTZ-treated pdMM cells by DCs"},
      {"measurement": "micronuclei (DNA content in the cytoplasm)", "setting": "[2]", "result": "dose-dependent increase of DNA content in the cytoplasm"},
      {"measurement": "multiple myeloma cell death, as measured by phosphatidylserine exposure", "setting": "[3]", "result": "induced multiple myeloma cell death in a dose-dependent manner"},
      {"measurement": "PERK pathway activation (p-eIF2-alpha, CHOP, ATF4)", "setting": "[4]", "result": "activated the UPR transducer PERK pathway"},
      {"measurement": "transcriptional changes in tumors (RNA-seq)", "setting": "5TGM1 tumors; 5TGM1 Calr^KO tumors", "result": "decreased this effect"},
      {"measurement": "transcriptional changes in tumors (RNA-seq)", "setting": "5TGM1 tumors; 5TGM1 WT tumors, two BTZ treatments 0.5 mg/kg", "result": "switched on a transcriptional program that is linked to the activation of an immune response; also recorded: consistent with activation of an immune response"}
    ]}
  ]
}
